Experiments:
Experiment in all cases: fluorescence scan of RNA array
Settings in all cases: 6 mM MgCl2, 20 mM NaCl; 40 mM Tris pH 7.8, 20 °C, 16 h; 20 μM malachite green
[1] = tested on: ompAsa (RNA, mRNA element) GGGCCAGGGGUGCUCGGCAUAAGCCGAAGAUAUCGGUAGAGUUAAUAUUGAGCAGAUCCCCCGGUGAAGGAUUUAACCGUGUUAUCUCGUUGGAGAUAUUCAUGGCGUAUUUUGGAUGAUAACGAGGCGCAAAAAAUGAAAAAGACAGCUAUCGCGAUUGCAGUGGCAAAUAAUAAUAAUAAUAAUAAUAUGCAUGCACCGACCAGAAUCAUGCAAGUGCGUAAGAUAGUCGCGGGCCGGGGCAUGCAU
[2] = tested on: MicAsa (RNA, other) GGGGAAAGACGCGCAUUUGUUAUCAUCAUCCCUGAAUUCAGAGAUGAAAUUUUGGCCACUCACGAGUGGCCUUUUACACACACACACACACACACGCAUGCAUACCGACCAGAAUCAUGCAAGUGCGUAAGAUAGUCGCGGGCCGGGAUGCAUGC
[3] = tested on: rpoSsa (RNA, mRNA element) GGGUUCUGAGUCUUCGGGUGAACAGAGUGCUAACAAAAUGUUGCCGAACAACAAGCCAACUGCGACCACGGUCACAGCGCCUGUAACGGUACCAACAGCAAGCACAACCGAGCCGACUGUCAGCAGUACAUCAACCAGUACGCCUAUCUCCACCUGGACCUGGCCGACUGAGGGCAAAGUGAUCGAAACCUUUGGCGCUUCUGAGGGGGGCAACAAGGGGAUUGAUAUCGCAGGCAGCAAAGGACAGGCAAUUAUCGCGACCGCAGAUGGCCGCGUUGUUUAUGCUGGUAACGCGCUGCGCGGCUACGGUAAUCUGAUUAUCAUCAAACAUAAUGAUGAUUACCUGAGUGCCUACGCCCAUAACGACACAAUGCUGGUCCGGGAACAACAAGAAGUUAAGGCGGGGCAAAAAAUAGCGACCAUGGGUAGCACCGGAACCAGUUCAACACGCUUGCAUUUUGAAAUUCGUUACAAGGGGAAAUCCGUAAACCCGCUGCGUUAUUUGCCGCAGCGAUAAAUCGGCGGAACCAGGCUUUUGCUUGAAUGUUCCGUCAAGGGAUCACGGGUAGGAGCCACCUUAUGAGUCAGAUUUUUUUUUUUUUUUUUUAUGCAUGCACCGACCAGAAUCAUGCAAGUGCGUAAGAUAGUCGCGGGCCGGGGCAUGCAU
[4] = tested on: DsrAsa (RNA, other) GGGAACACAUCAGAUUUCCUGGUGUAACGAAUUUUUUAAGUGCUUCUUGCUUAAGCAAGUUUCAUCCCGACCCCCUCAGGGUCGGGAUUUUUUUUUUUUUUUUUUUUUUAGAGACCGACCAGAAUCAUGCAAGUGCGUAAGAUAGUCGCGGGCCGGGCUCUA
[5] = tested on: MGsa (malachite green aptamer–streptavidin aptamer conjugate) (RNA, aptamer) GGAUCCCGACUGGCGAGAGCCAGGUAACGAAUGGAUCCACACACACACACACACACACGCAUGCAUACCGACCAGAAUCAUGCAAGUGCGUAAGAUAGUCGCGGGCCGGGAUGCAUGC
[6] = tested on: RprAsa (RNA, other) GGGACGGUUAUAAAUCAACAUAUUGAUUUAUAAGCAUGGAAAUCCCCUGAGUGAAACAACGAAUUGCUGUGUGUAGUCUUUGCCCAUCUCCCACGAUGGGCUUUUUUUUUUUUUUUUUUUUUUUUUUGUGUGACCGACCAGAAUCAUGCAAGUGCGUAAGAUAGUCGCGGGCCGGGCACAC

CN(C)c1ccc(C(=C2C=CC(=[N+](C)C)C=C2)c2ccccc2)cc1
binding [1]: no | binding [2]: no | binding [3]: no | binding [4]: no | binding [5]: yes | binding [6]: no

Source: article PMC6101487 (2018)
